Assay results published in the supplement of paper PMC10307832.

Legend:
Test in all cases: relative viability (nuclei count vs DMSO), 5 days (fraction); higher = more cells survive
Bortezomib + Phenformin = compound: CC(C)C[C@H](NC(=O)[C@H](Cc1ccccc1)NC(=O)c1cnccn1)B(O)O [Bortezomib] + N=C(N)NC(=N)NCCc1ccccc1 [Phenformin] (partner 250 µM)
In short: (§1)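 Five library-drug doses in √10 steps were combined with a fixed anchor-drug dose, or a single drug was given alone, by pin tool to lung cancer cell lines in 1536-well plates the day after seeding. Nuclei were stained and counted after 5 days. Relative viability is the nuclei count in treated wells over that in vehicle wells, taken as the median of duplicate plates.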

[1] = compound: CC1=CC(=NN1)NC2=CC(=NC(=N2)/C=C/C3=CC=CC=C3)N4CCN(CC4)C + Cc1nc(Nc2ncc(C(=O)Nc3c(C)cccc3Cl)s2)cc(N2CCN(CCO)CC2)n1 [Dasatinib] (partner 0.075 µM)
In short: as §1

Obatoclax + Foretinib = compound: COC1=CC(c2cc3ccccc3[nH]2)=N/C1=C\c1[nH]c(C)cc1C [Obatoclax] + COc1cc2c(Oc3ccc(NC(=O)C4(C(=O)Nc5ccc(F)cc5)CC4)cc3F)ccnc2cc1OCCCN1CCOCC1 [Foretinib] (partner 0.25 µM)
In short: as §1

Obatoclax + Decitabine = compound: COC1=CC(c2cc3ccccc3[nH]2)=N/C1=C\c1[nH]c(C)cc1C [Obatoclax] + Nc1ncn([C@H]2C[C@H](O)[C@@H](CO)O2)c(=O)n1 [Decitabine] (partner 2 µM)
In short: as §1

| Cell Line | relative viability (Bortezomib + Phenformin; first compound 0.0002 µM) | relative viability (Bortezomib + Phenformin; first compound 0.000632 µM) | relative viability (Bortezomib + Phenformin; first compound 0.002 µM) | relative viability (Bortezomib + Phenformin; first compound 0.006325 µM) | relative viability (Bortezomib + Phenformin; first compound 0.02 µM) | relative viability ([1]; first compound 0.08 µM) | relative viability ([1]; first compound 0.253 µM) | relative viability ([1]; first compound 0.8 µM) | relative viability ([1]; first compound 2.53 µM) | relative viability ([1]; first compound 8 µM) | relative viability (Obatoclax + Foretinib; first compound 0.01 µM) | relative viability (Obatoclax + Foretinib; first compound 0.03162 µM) | relative viability (Obatoclax + Foretinib; first compound 0.1 µM) | relative viability (Obatoclax + Foretinib; first compound 0.3162 µM) | relative viability (Obatoclax + Foretinib; first compound 1 µM) | relative viability (Obatoclax + Decitabine; first compound 0.01 µM) | relative viability (Obatoclax + Decitabine; first compound 0.03162 µM) | relative viability (Obatoclax + Decitabine; first compound 0.1 µM) | relative viability (Obatoclax + Decitabine; first compound 0.3162 µM) | relative viability (Obatoclax + Decitabine; first compound 1 µM) |
| --- | --- | --- | --- | --- | --- | --- | --- | --- | --- | --- | --- | --- | --- | --- | --- | --- | --- | --- | --- | --- |
| NCI-H661 | 0.286 | 0.292 | 0.302 | 0.239 | 0.204 | 0.824 | 0.808 | 0.853 | 0.243 | 0.237 | 0.977 | 1.03 | 1.05 | 0.936 | 0.763 | 0.539 | 0.532 | 0.594 | 0.558 | 0.489 |
| UMC-11 | 0.371 | 0.313 | 0.333 | 0.292 | 0.236 | 0.487 | 0.426 | 0.329 | 0.163 | 0.125 | 1.07 | 1.08 | 1.05 | 0.716 | 0.382 | 0.608 | 0.536 | 0.475 | 0.573 | 0.41 |
| NCI-H520 | 0.599 | 0.669 | 0.422 | 0.213 | 0.17 | 0.202 | 0.194 | 0.166 | 0.143 | 0.118 | 0.825 | 0.727 | 0.944 | 0.668 | 0.609 | 0.441 | 0.309 | 0.631 | 0.507 | 0.292 |
| ChaGo-K-1 | 0.416 | 0.455 | 0.45 | 0.462 | 0.153 | 0.58 | 0.598 | 0.476 | 0.151 | 0.132 | 0.83 | 0.947 | 0.913 | 0.901 | 1.03 | 0.497 | 0.476 | 0.506 | 0.509 | 0.516 |
